Test results taken from paper PMC5792431 (Scientific Reports, 2018).
Converted amounts (≈) assume the structure as drawn. Where two headings read alike, the source gives them in different places.

What was measured:
rRVFVΔNSs::Katushka [1] = experiment: microbe, parasite or virus in culture; format: cell-based, Rift Valley fever virus; conditions: for EC50: read-out: EC50, inhibition of fluorescent cell foci
physchem [2] = conditions: pH 7.4
physchem [3] = conditions: 37 °C, pH 7.4, aqueous buffer, thermodynamic from solid
in vitro [4] = conditions: human, Caco-2, pH 7.4
in vitro [5] = conditions: both, human, plasma, pH 7.4
[6] = human
in vitro [7] = conditions: human, microsomes, pH 7.4
[8] = human, microsomes, pH 7.4
in vitro [9] = conditions: human, hepatocytes
in vitro [10] = conditions: mouse, plasma, pH 7.4
rRVFVΔNSs::Katushka [11] = experiment: microbe, parasite or virus in culture; format: cell-based; conditions: Rift Valley fever virus, A549, 16 h, read-out: EC50, inhibition of RVFV RNA expression (qPCR)
[12] = female, BALB/C, mouse, in vivo
[13] = mouse, in vivo
RVFV virions = format: cell-based, Rift Valley fever virus
rRVFVΔNSs::Katushka [14] = experiment: microbe, parasite or virus in culture; format: cell-based, Rift Valley fever virus
rRVFVΔNSs::Katushka [15] = format: cell-based, Rift Valley fever virus
in vivo = conditions: female, BALB/C, mouse
[16] = mouse, microsomes, pH 7.4
A549 cells = conditions: cited from earlier work
physchem [17] = conditions: plasma or biological fluid
in vitro [18] = conditions: mouse, microsomes, pH 7.4
[19] = Rift Valley fever virus, A549, 16 h

## CC(C)(C)C(=O)Nc1ccccc1C(=O)Nc1ccccc1C(=O)O [17d]
rRVFVΔNSs::Katushka [1]
  EC50, inhibition of fluorescent cell foci: out of range

## O=C(O)c1ccccc1NC(=O)c1ccccc1NC(=O)C1CCCCC1 [17e]
rRVFVΔNSs::Katushka [1]
  EC50, inhibition of fluorescent cell foci: out of range

## O=C(Nc1cc(Cl)ccc1C(=O)Nc1ccccc1C(=O)O)c1ccccc1F [35f]
rRVFVΔNSs::Katushka [1]; [19]
  EC50: 4.5 µM
rRVFVΔNSs::Katushka [1]
  EC50: 4.6 µM

## O=C(Nc1ccccc1C(=O)Nc1ccccc1C(=O)O)c1ccccc1 [Benzavir-1, 2-{[2-(benzoylamino)benzoyl]amino}-benzoic acid]
Physchem [2]
  logD: 1.52 ± 0.02
Physchem [3]
  solubility: 930 ± 110 µM (≈ 335 µg/mL)
In vitro [4]
  Papp A→B: 32 ± 3 ×10⁻⁶ cm/s
  Papp B→A: 31 ± 2 ×10⁻⁶ cm/s
  efflux ratio: 1
In vitro [5]
  fraction unbound: 0.0003
[6]
  CLH, u (HHep): 2.3 L/h
In vitro [7]
  microsomal CLint: 3.9 ± 0.8 µL/min/mg
rRVFVΔNSs::Katushka [1]; [19]
  EC50: 10.1 µM
[8]
  CLH, u (HLM): 1.0 L/h
In vitro [9]
  hepatocyte CLint: 3.1 ± 0.1 µL/min/1e6 cells

## O=C(Nc1cc(F)c(F)cc1C(=O)Nc1ccccc1C(=O)O)c1ccccc1F [Benzavir-2, 2-(4,5-difluoro-2-(2-fluorobenzamido)benzamido)benzoic acid]
Physchem [2]
  logD: 1.56 ± 0.01
In vitro [10]
  fraction unbound: 0.0076 ± 0.0002
rRVFVΔNSs::Katushka [11]
  EC50: 1.7 µM
Physchem [3]
  solubility: 130 ± 10 µM (≈ 53.9 µg/mL)
[12]; ip, 2 mg/kg
  Fapp: 43 ± 15%
[12]; ip, 10 mg/kg
  Fapp: 120 ± 40%
[12]; iv
  iv CL relative to unbound in vitro metabolic CL: 2–4 times higher
[12]; po, 2 mg/kg
  Fapp: 14 ± 5%
[12]; po, 10 mg/kg
  Fapp: 54 ± 18%
In vitro [4]
  Papp A→B: 55 ± 4 ×10⁻⁶ cm/s
  Papp B→A: 45 ± 3 ×10⁻⁶ cm/s
  efflux ratio: 0.8
[13]
  weight loss or negative behavioural signs: No weight loss or negative behavioural signs were observed
In vitro [5]
  fraction unbound: 0.0004 ± 0.0002
[6]
  CLH, u (HHep): 4.0 L/h
RVFV virions
  inhibition of binding or uptake of RVFV virions: No inhibition of binding or uptake of RVFV virions
rRVFVΔNSs::Katushka [14]; 1.25 μM
  inhibition of release of viable progeny particles to the supernatant: > 95%
rRVFVΔNSs::Katushka [14]; Rift Valley fever virus, A549, 16 h, read-out: EC50, inhibition of production of progeny infectious virus
  EC50: 0.6 µM
In vitro [7]
  microsomal CLint: 3.8 ± 0.4 µL/min/mg
rRVFVΔNSs::Katushka [15]
  inhibitory effect by time of addition: the inhibitory effect on the formation of the fluorescent cell foci was the greatest
In vivo; ip, 2 mg/kg
  Cmax: 2.3 µM
  Tmax: 15 min
  half-life: 84 ± 12 min
In vivo; ip, 10 mg/kg
  Cmax: 28 µM
  Tmax: 15 min
  half-life: 96 ± 12 min
In vivo; iv, 1 mg/kg
  Cmax: 7.8 µM
  Vd: 29 ± 7 L/kg
  clearance: 9.33 mL/min
  half-life: 42 ± 12 min
In vivo; iv, 2 mg/kg
  Cmax: 7.8 µM
  Vd: 20 ± 2 L/kg
  clearance: 6.17 mL/min
  half-life: 42 ± 6 min
In vivo; iv, 4 mg/kg
  Cmax: 20 µM
  Vd: 35 ± 7 L/kg
  clearance: 11.3 mL/min
  half-life: 42 ± 6 min
In vivo; po, 2 mg/kg
  Cmax: 0.4 µM
  Tmax: 30 min
  half-life: 180 ± 36 min
In vivo; po, 10 mg/kg
  Cmax: 13 µM
  Tmax: 30 min
  half-life: 180 ± 60 min
rRVFVΔNSs::Katushka [1]; [19]
  EC50: 0.6 µM
[16]
  CLH, u (MLM): 0.15 L/h
A549 cells
  CC50: not achieved within these concentrations
[8]
  CLH, u (HLM): 1.4 L/h
In vitro [9]
  hepatocyte CLint: 4.1 ± 0.4 µL/min/1e6 cells
Physchem [17]
  solubility: > 150 µM
In vitro [18]
  microsomal CLint: 3.8 ± 0.9 µL/min/mg
